# Test results as given in ChEMBL document CHEMBL1147778, “Development and evaluation of a pharmacophore model for inhibitors of aldosterone synthase (CYP11B2)” (Bioorg Med Chem Lett, 2006).
# pIC50: −log10 of the molar value.
# Assays:
# [1] = biological target: T1, Cytochrome P450 11B1, mitochondrial (Homo sapiens, UniProt P15538); experiment: Inhibition of human CYP11B1 expressed in V79 hamster fibroblasts
# T1 sequence (P15538 whole entry): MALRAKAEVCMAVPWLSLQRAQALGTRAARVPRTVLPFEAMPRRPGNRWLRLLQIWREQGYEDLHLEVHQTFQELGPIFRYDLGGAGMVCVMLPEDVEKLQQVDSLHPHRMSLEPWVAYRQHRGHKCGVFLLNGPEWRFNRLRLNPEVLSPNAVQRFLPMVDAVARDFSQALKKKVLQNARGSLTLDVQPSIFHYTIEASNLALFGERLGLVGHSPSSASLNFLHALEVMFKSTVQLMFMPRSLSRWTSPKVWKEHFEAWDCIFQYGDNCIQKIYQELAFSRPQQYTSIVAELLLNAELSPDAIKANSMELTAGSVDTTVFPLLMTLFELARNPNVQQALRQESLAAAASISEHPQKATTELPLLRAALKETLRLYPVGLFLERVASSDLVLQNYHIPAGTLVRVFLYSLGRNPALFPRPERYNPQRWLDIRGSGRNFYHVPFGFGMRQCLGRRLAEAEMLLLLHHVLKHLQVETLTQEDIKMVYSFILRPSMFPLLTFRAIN
# [2] = biological target: T2, Cytochrome P450 11B2, mitochondrial (Homo sapiens, UniProt P19099); experiment: Inhibition of aldosterone synthase (CYP11B2) expressed in V79 hamster fibroblasts
# T2 sequence (P19099 whole entry): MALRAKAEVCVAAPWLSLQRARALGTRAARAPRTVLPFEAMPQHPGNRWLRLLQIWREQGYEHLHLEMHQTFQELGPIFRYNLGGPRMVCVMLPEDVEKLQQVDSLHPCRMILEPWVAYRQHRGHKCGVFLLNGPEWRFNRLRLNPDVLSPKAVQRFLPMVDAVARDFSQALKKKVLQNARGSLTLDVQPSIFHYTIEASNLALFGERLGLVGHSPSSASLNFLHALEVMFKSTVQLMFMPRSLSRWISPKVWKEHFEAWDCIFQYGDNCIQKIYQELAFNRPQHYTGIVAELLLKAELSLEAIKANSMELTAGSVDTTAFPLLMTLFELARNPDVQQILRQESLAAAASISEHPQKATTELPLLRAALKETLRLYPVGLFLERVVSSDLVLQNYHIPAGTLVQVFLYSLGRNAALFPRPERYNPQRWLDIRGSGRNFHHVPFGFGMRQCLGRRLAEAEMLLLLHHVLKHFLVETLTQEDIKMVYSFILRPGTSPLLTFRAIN
# [3] = species on record: Homo sapiens; experiment: Selectivity for human CYP11B1 over CYP11B2
pIC50 [1],pIC50 [2],Ratio IC50 [3],SMILES
5.54,7.85,207,c1cncc(-c2ccc3c4c(cccc24)CC3)c1
,,245,c1cncc(-c2ccc3cccc4c3c2CC4)c1
